Laboratory results taken from patent US20230062486A1, “KRAS G12C INHIBITOR AND PHARMACEUTICAL USE THEREOF” (Betta Pharmaceuticals Co., LTD, priority 2019, published 2023).

Tests used:
[1] = system: MIA-PACA-2 cells; assay: Cell proliferation assay, MIA-PACA-2 cells (Cell-titer Glo); type: cell-based; conditions: Homo sapiens; inhibiting MIA-PACA-2 cells, 96-well ultra-low adsorption plate, 96 h incubation, Cell-titer Glo luminescence
Experimental: (§1) Pave the MIA-PACA-2 cells into a 96-well ultra-low adsorption plate at 600 cells, 160 μL/well. After incubating overnight, compound solutions of gradient concentration was prepared, and added 40 μL of DMSO solution of the test compound of each concentration to the cells of each well. The final concentration of the compound is 10000, 2000, 400, 80, 16, 3.2, 0.64, 0.12, 0.025, 0 nM (the final concentration of DMSO is 0.25%). Incubated for 96 h at 37° C. and 5% CO2. 50 μL of Cell-titer Glo working solution was added to each well, shaked and mixed, and incubated at room temperature for 10 minutes. The multi-functional microplate reader read the luminescence value, and converted the luminescence value reading into inhibition percentage.
(§2) Inhibition percentage=(maximum value−reading)/(maximum value−minimum value)*100.
(§3) The “maximum value” was the DMSO control, the “minimum value” indicates the cell-free control group.
(§4) Graphpad Prism software was used to perform curve fitting and obtain IC50 value.
Refer to Table 2 for the IC50 data of some compounds in the examples inhibiting MIA-PACA-2 cells.

[2] = system: H358 cells; assay: Cell proliferation assay, H358 cells (Cell-titer Glo); type: cell-based; conditions: Homo sapiens, NCI-H358; inhibiting H358 cells, 96-well ultra-low adsorption plate, 96 h incubation, Cell-titer Glo luminescence
Experimental: as §1, with “the H358” for “the MIA-PACA-2”, “cells on” for “cells into”, “plate with 2000 cells and 190” for “plate at 600 cells, 160”, “added 10” for “added 40”, “10000, 3333.3, 1111.1, 370.4, 123.5, 41.2, 13.7, 4.6, 1.5,” for “10000, 2000, 400, 80, 16, 3.2, 0.64, 0.12, 0.025,”
as §2, §3, §4
Refer to table 3 for the IC50 data of some compounds in the Examples for inhibiting H358 cells.

Row | IC50 [1] [µM] | IC50 [2] [µM] | SMILES
1 | 1 to 10 | 1 to 10 | C=CC(=O)N1CCn2c(cnc2-c2cc(F)c(-c3c(O)cccc3F)c(Cl)c2)C1 [Example 8, 1-(3-(2-chloro-2′,6-difluoro-6′-hydroxy-[1,1′-biphenyl]-4-yl)-5,6-dihydroimidazo[1,5-a]pyrazin-7(8H)-yl)prop-2-en-1-one]
2 | > 10 | – | C=CC(=O)N1CCn2c(nc(-c3ccccc3C(C)C)c2-c2cc(F)c(-c3c(O)cccc3F)c(Cl)c2)C1 [Example 12, 1-(3-(2-chloro-2′,6-difluoro-6′-hydroxy-[1,1′-biphenyl]-4-yl)-2-(2-isopropylphenyl)-5,6-dihydroimidazo[1,2-a]pyrazin-7(8H)-yl)prop-2-en-1-one]
3 | ≤ 1 | – | C=CC(=O)N1CCn2c(nnc2-c2cc(Cl)c(-c3c(O)cccc3F)c(OCC(F)(F)F)c2)C1 [Example 17, 1-(3-(2-chloro-2′-fluoro-6′-hydroxy-6-(2,2,2-trifluoroethoxy)-[1,1′-biphenyl]-4-yl)-5,6-dihydro-[1,2,4]triazolo[4,3-a]pyrazin-7(8H)-yl)prop-2-en-1-one]
4 | ≤ 1 | 1 to 10 | C=CC(=O)N1CCn2c(-c3cc(F)c(-c4c(O)cccc4F)c(Cl)c3)cnc2C1 [Example 6, 1-(3-(2-chloro-2′,6-difluoro-6′-hydroxy-[1,1′-biphenyl]-4-yl)-5,6-dihydroimidazo[1,2-a]pyrazin-7(8H)-yl)prop-2-en-1-one]
5 | > 10 | > 10 | C=CC(=O)N1CCn2c(nnc2-c2cc(F)c(-c3c(F)ccc(Cl)c3N)c(Cl)c2)C1 [Example 7, 1-(3-(2′-amino-2,3′-dichloro-6,6′-difluoro-[1,1′-biphenyl]-4-yl)-5,6-dihydro-[1,2,4]triazolo[4,3-a]pyrazin-7(8H)-yl)prop-2-en-1-one]
6 | 1 to 10 | 1 to 10 | C=CC(=O)N1CCn2c(nnc2-c2cc(F)c(-c3c(O)cccc3F)c(Cl)c2)C1 [Example 1, 1-(3-(2-chloro-2′,6-difluoro-6′-hydroxy-[1,1′-biphenyl]-4-yl)-5,6-dihydro-[1,2,4]triazolo[4,3-a]pyrazin-7(8H)-yl)prop-2-en-1-one]
7 | ≤ 1 | – | C=CC(=O)N1CCn2c(nc(-c3ccccc3C(C)C)c2-c2cc(F)c(-c3c(F)ccc(Cl)c3O)c(Cl)c2)C1 [Example 13, 1-(3-(2,3′-dichloro-6,6′-difluoro-2′-hydroxy-[1,1′-biphenyl]-4-yl)-2-(2-isopropylphenyl)-5,6-dihydroimidazo[1,2-a]pyrazin-7(8H)-yl)prop-2-en-1-one]
8 | 1 to 10 | – | C=CC(=O)N1CCn2c(nc(-c3ccccc3C(C)C)c2-c2cc(F)c(-c3c(O)c(Cl)cc(Cl)c3F)c(Cl)c2)C1 [Example 14, 1-(2-(2-isopropylphenyl)-3-(2,3′,5′-trichloro-2′,6-difluoro-6′-hydroxy-[1,1′-biphenyl]-4-yl)-5,6-dihydroimidazo[1,2-a]pyrazin-7(8H)-yl)prop-2-en-1-one]
9 | 1 to 10 | 1 to 10 | C=CC(=O)N1CCn2c(nnc2-c2cc(F)c(-c3c(C)ccc4[nH]ncc34)c(Cl)c2)C1 [Example 5, 1-(3-(3-chloro-5-fluoro-4-(5-methyl-1H-indazol-4-yl)phenyl)-5,6-dihydro-[1,2,4]triazolo[4,3-a]pyrazin-7(8H)-yl)prop-2-en-1-one]
10 | 1 to 10 | – | C=CC(=O)N1CCn2c(cnc2-c2cc(F)c(-c3c(F)ccc(Cl)c3O)c(Cl)c2)C1 [Example 9, 1-(3-(2,3′-dichloro-6,6′-difluoro-2′-hydroxy-[1,1′-biphenyl]-4-yl)-5,6-dihydroimidazo[1,5-a]pyrazin-7(8H)-yl)prop-2-en-1-one]
11 | > 10 | > 10 | C=C(F)C(=O)N1CCn2c(nnc2-c2cc(F)c(-c3c(O)cccc3F)c(Cl)c2)C1 [Example 4, 1-(3-(2-chloro-2′,6-difluoro-6′-hydroxy-[1,1′-biphenyl]-4-yl)-5,6-dihydro-[1,2,4]triazolo[4,3-a]pyrazin-7(8H)-yl)-2-fluoroprop-2-en-1-one]
12 | > 10 | – | C=CC(=O)N1CCn2c(-c3cc(F)c(-c4c(F)ccc(Cl)c4O)c(Cl)c3)cnc2C1 [Example 15, 1-(3-(2,3′-dichloro-6,6′-difluoro-2′-hydroxy-[1,1′-biphenyl]-4-yl)-5,6-dihydroimidazo[1,2-a]pyrazin-7(8H)-yl)prop-2-en-1-one]
13 | ≤ 1 | ≤ 1 | C=CC(=O)N1CCn2c(nnc2-c2cc(F)c(-c3c(O)c(Cl)cc(Cl)c3F)c(Cl)c2)C1 [Example 3, 1-(3-(2,3′,5′-trichloro-2′,6-difluoro-6′-hydroxy-[1,1′-biphenyl]-4-yl)-5,6-dihydro-[1,2,4]triazolo[4,3-a]pyrazin-7(8H)-yl)prop-2-en-1-one]
14 | 1 to 10 | – | C=CC(=O)N1CCn2c(nnc2-c2cc(Cl)c(-c3c(F)ccc(Cl)c3O)c(OCC(F)(F)F)c2)C1 [Example 16, 1-(3-(2,3′-dichloro-6′-fluoro-2′-hydroxy-6-(2,2,2-trifluoroethoxy)-[1,1′-biphenyl]-4-yl)-5,6-dihydro-[1,2,4]triazolo[4,3-a]pyrazin-7(8H)-yl)prop-2-en-1-one]
15 | > 10 | – | C=CC(=O)N1CCn2c(nc(C(F)(F)F)c2-c2cc(F)c(-c3c(F)ccc(Cl)c3O)c(Cl)c2)C1 [Example 18, 1-(3-(2,3′-dichloro-6,6′-difluoro-2′-hydroxy-[1,1′-biphenyl]-4-yl)-2-(trifluoromethyl)-5,6-dihydroimidazo[1,2-a]pyrazin-7(8H)-yl)prop-2-en-1-one]
16 | > 10 | – | C=CC(=O)N1CCn2c(cnc2-c2cc(F)c(-c3c(O)c(Cl)cc(Cl)c3F)c(Cl)c2)C1 [Example 10, 1-(3-(2,3′,5′-trichloro-2′,6-difluoro-6′-hydroxy-[1,1′-biphenyl]-4-yl)-5,6-dihydroimidazo[1,5-a]pyrazin-7(8H)-yl)prop-2-en-1-one]
17 | > 10 | – | C=CC(=O)N1CCn2c(nnc2-c2cc(F)c(-c3c(O)cccc3F)c(C=C)c2)C1 [Example 11, 1-(3-(2,2′-difluoro-6′-hydroxy-6-vinyl-[1,1′-biphenyl]-4-yl)-5,6-dihydro-[1,2,4]triazolo[4,3-a]pyrazin-7(8H)-yl)prop-2-en-1-one]
18 | ≤ 1 | ≤ 1 | C=CC(=O)N1CCn2c(nnc2-c2cc(F)c(-c3c(O)ccc(Cl)c3F)c(Cl)c2)C1 [Example 2, 1-(3-(2,3′-dichloro-2′,6-difluoro-6′-hydroxy-[1,1′-biphenyl]-4-yl)-5,6-dihydro-[1,2,4]triazolo[4,3-a]pyrazin-7(8H)-yl)prop-2-en-1-one]
